According to PMC4645160, “Targeting kinases with anilinopyrimidines: discovery of N-phenyl-N’-[4-(pyrimidin-4-ylamino)phenyl]urea derivatives as selective inhibitors of class III receptor tyrosine kinase subfamily” (Scientific Reports, 2015):

Experiments:
panel of 48 kinases = test: KinomeScan primary screening (POC) at 10 μM; format: binding, human; details: POC values
Source text: Synthesized compounds were screened against a panel of 48 kinases selected within the ScanEDGE subset of DiscoverX (http://www.discoverx.com/services/drug-discovery-development-services/kinase-profiling/kinomescan/scanedge). The ScanEDGE includes 97 kinases and is an economical approach to assess compounds selectivity throughout the human kinome. All the wt-TKs along with some relevant mutants of Abl1 (T315I) and of EGFR (L858R and L858R/T790M) were chosen. The remaining 18 targets (3 Tyrosine Kinases-Like, TKLs; 15 Serine-Threonine Kinases, STKs) were selected among the remaining kinases in the ScanEDGE subset on the basis of their well established role in cancer (see Fig. S2 for a graphical representation of the selected kinases with reference to the kinome tree. Some references highlighting the role of each kinase in cancer are also reported in Table S3).
The compounds were evaluated using the KinomeScan™ platform (http://www.discoverx.com/services/drug-discovery-development-services/kinase-profiling/kinomescan), that measures the ability of the test compound to disrupt the complex between a high affinity ATP-mimic probe immobilized on a solid support and the kinase of interest. The KinomeScan is a very helpful technology for the fast and reliable screening of a number of compounds against a wide and customizable panel of kinases. Besides, it is not based on the use of hazardous radioactive ^32P-ATP and has a very low rate of false positive (<1%)[44]. The screening platform outputs a “Percent of Control” (POC) value, statistically correlated to the dissociation constant (Kd) value (http://www.discoverx.com/tools-resources/leadhunter-study-reports-data-analysis), for each pair of kinase/ligand. The POC is calculated as reported in equation (1):
Where: test compound signal = amount of kinase still binding the probe after treatment with test compound; negative control signal = amount of kinase still binding the probe after treatment with DMSO (100% control); positive control signal = amount of kinase still binding the probe after treatment with control compound (0% control).
The compounds were tested at high concentration (10 μM), in order to highlight not only the main target but also the off-targets. The results of the preliminary screening are reported as heat map (Fig. 4; see also Table S4 for all the measured values), in which the compounds are grouped on the basis of the 6 or 5 substituent at the pyrimidine ring.

A549 cells = test: MTT cytotoxicity assay, A549 lung cancer cells; format: cell-based, human; details: for IC50: Homo sapiens, A549, 72 h, MTT test, 72 h of drug treatment, read-out: A549 IC50 (μM) ± SD; for Potency relative to SU (A549): ratio between IC50 of sunitinib and IC50 of tested compound
Procedure: (§1) Compounds active against at least one kinase among EGFR and class III RTKs were evaluated for their cytotoxic properties against two different human cancer cell lines, namely non small cells A549 lung cancer cells (sensitive to EGFR inhibitors)[46] and pancreatic BxPC3 adenocarcinoma (sensitive to both PDGFRβ and EGFR inhibitors)[47][48] cells. […] The results, expressed as IC50 values (μM) calculated from the dose-survival curves obtained after 72 h of drug treatment from the MTT test, are reported in Table 1.
(§2) All compounds, except derivative 27, were dissolved in DMSO just before the experiment, and a calculated amount of drug solution was added to the cell growth medium to a final solvent concentration of 0.5%, which had no discernible effect on cell killing. Compound 27 was dissolved in a 0.9% NaCl solution just before the experiment.
(§3) Human lung (A549), breast (MCF-7), pancreas (BxPC3), and colon (LoVo) carcinoma cell lines along with melanoma (A375) were obtained from American Type Culture Collection (ATCC, Rockville, MD). Human non-tumor embryonic kidney HEK293 cells were obtained from European Collection of Cell Cultures (ECACC, Salisbury, UK). Human cervical carcinoma A431cells were kindly provided by Prof. F. Zunino (Division of Experimental Oncology B, Istituto Nazionale dei Tumori, Milan, Italy). Human ovarian cancer 2008 cells were kindly provided by Prof. G. Marverti (Dept. of Biomedical Science of Modena University, Italy). Cell lines were maintained in the logarithmic phase at 37 °C in a 5% carbon dioxide atmosphere using the following culture media containing 10% fetal calf serum (Euroclone, Milan, Italy), antibiotics (50 units ∙ mL^−1 penicillin and 50 μg ∙ mL^−1 streptomycin) and 2 mM l-glutamine: i) RPMI-1640 medium (Euroclone) for MCF-7, A431, BxPC3 and 2008 cells; ii) F-12 HAM’S (Sigma Chemical Co.) for A549 and LoVo cells; iii) D-MEM medium (Euroclone) for HEK293 cells.
(§4) The growth inhibitory effect towards human cell lines was evaluated by means of MTT (tetrazolium salt reduction) assay. Briefly, 3–8 ∙ 10^3 cells/well, dependent upon the growth characteristics of the cell line, were seeded in 96-well microplates in growth medium (100 μL) and then incubated at 37 °C in a 5% carbon dioxide atmosphere. After 24 h, the medium was removed and replaced with a fresh one containing the test compound at the appropriate concentration. Triplicate cultures were established for each treatment. After 72 h, each well was treated with 10 μL of a 5 mg ∙ mL-1 MTT (3-(4,5-dimethylthiazol-2-yl)-2,5-diphenyltetrazolium bromide) saline solution, and after 5 h additional incubation, 100 μL of a sodium dodecylsulfate (SDS) solution in HCl 0.01 M were added. After overnight incubation, the inhibition of cell growth induced by the tested complexes was detected by measuring the absorbance of each well at 570 nm using a Bio-Rad 680 microplate reader (Bio-Rad, Hercules, CA). Mean absorbance for each drug dose was expressed as a percentage of the control untreated well absorbance and plotted vs drug concentration.

BxPC3 cells = test: MTT cytotoxicity assay, BxPC3 pancreatic adenocarcinoma cells; format: cell-based, human; details: for IC50: Homo sapiens, BXPC-3, MTT test, 72 h of drug treatment, read-out: BxPC3 IC50 (μM) ± SD; for Potency relative to SU (BxPC3): ratio between IC50 of sunitinib and IC50 of tested compound
Procedure: as §1, §2, §3, §4

HEK293 cells = test: MTT cytotoxicity assay, non-tumor HEK293 cells; format: cell-based, human; details: Homo sapiens, HEK293; MTT test, 72 h, non-tumor cells; read-out: HEK293 IC50 (μM) ± SD
Procedure: F. Zunino (Division of Experimental Oncology B, Istituto Nazionale dei Tumori, Milan, Italy).
The growth inhibitory effect towards human cell lines was evaluated by means of MTT (tetrazolium salt reduction) assay. […] Triplicate cultures were established for each treatment.

2008 cells = test: MTT cytotoxicity assay, 2008 ovarian cancer cells; format: cell-based; details: Homo sapiens; MTT test, 72 h; read-out: 2008 IC50 (μM) ± SD
Procedure: (§5) The cytotoxic profile of 19 and 27 was assessed on a wider panel of human tumor cell lines including also examples of breast (MCF-7), cervical (A431), colorectal (HCT-15), and ovarian (2008) cancers as well as melanoma (A375), besides lung (A549) and pancreatic (BxPC3) cancer cells. IC50 values, calculated from the dose-survival curves obtained after 72 h of drug treatment from the MTT test, are reported in Table 2. […] Both compounds were endowed with a cytotoxic potency higher than that of SU, eliciting IC50 values in the low micromolar range.
as §2
(§6) Human lung (A549), breast (MCF-7), pancreas (BxPC3), and colon (LoVo) carcinoma cell lines along with melanoma (A375) were obtained from American Type Culture Collection (ATCC, Rockville, MD). Human non-tumor embryonic kidney HEK293 cells were obtained from European Collection of Cell Cultures (ECACC, Salisbury, UK). Human cervical carcinoma A431cells were kindly provided by Prof. F. Zunino (Division of Experimental Oncology B, Istituto Nazionale dei Tumori, Milan, Italy). Human ovarian cancer 2008 cells were kindly provided by Prof. G. Marverti (Dept. of Biomedical Science of Modena University, Italy). […]
(§7) The growth inhibitory effect towards human cell lines was evaluated by means of MTT (tetrazolium salt reduction) assay. […] After overnight incubation, the inhibition of cell growth induced by the tested complexes was detected by measuring the absorbance of each well at 570 nm using a Bio-Rad 680 microplate reader (Bio-Rad, Hercules, CA). Mean absorbance for each drug dose was expressed as a percentage of the control untreated well absorbance and plotted vs drug concentration.

MCF-7 cells = test: MTT cytotoxicity assay, MCF-7 breast cancer cells; format: cell-based; details: Homo sapiens, MCF7; MTT test, 72 h; read-out: MCF-7 IC50 (μM) ± SD
Procedure: as §5, §2, §6, §7

LoVo cells = test: MTT cytotoxicity assay, LoVo colon carcinoma cells; format: cell-based; details: Homo sapiens, MTT test, 72 h, read-out: LoVo IC50 (μM) ± SD
Procedure: as §5, §2, §6, §7

A375 cells = test: MTT cytotoxicity assay, A375 melanoma cells; format: cell-based; details: Homo sapiens, A-375; MTT test, 72 h; read-out: A375 IC50 (μM) ± SD
Procedure: as §5, §2, §6, §7

SMILES	Selectivity profile (kinases targeted) in primary screening (panel of 48 kinases)	IC50 (A549 cells) [µM]	Potency relative to SU (A549) (A549 cells)	IC50 (BxPC3 cells) [µM]	Potency relative to SU (BxPC3) (BxPC3 cells)	melting point [°C]	IC50 (HEK293 cells) [µM]	IC50 (2008 cells) [µM]	IC50 (MCF-7 cells) [µM]	IC50 (LoVo cells) [µM]	IC50 (A375 cells) [µM]
Cc1cccc(Nc2ncncc2-c2ccccc2)c1 [Compound 20]	Inactive										
c1ccc(Nc2cc(Nc3cccc(-c4ccccc4)c3)ncn2)cc1 [Compound 2]		26.5 ± 3.85	0.23	17.9 ± 2.46	0.28	267					
O=C(Nc1ccccc1)Nc1ccc(Nc2ncncc2-c2ccccc2)cc1 [Compound 26]	class III RTK	28.9 ± 5.86	0.21	30.9 ± 4.18	0.16						
Oc1ccc(Nc2cc(Nc3ccccc3)ncn2)cc1 [Compound 5]	EGFR; class III RTK; AXL	16.3 ± 4.24	0.38	6.51 ± 1.07	0.78	286					
Oc1cccc(Nc2cc(Nc3ccccc3)ncn2)c1 [Compound 3]		28.2 ± 5.46	0.22	8.19 ± 2.18	0.62	253					
Oc1ccc(Nc2ncncc2-c2ccccc2)cc1 [Compound 24]		12.1 ± 1.99	0.51	16.4 ± 4.22	0.31	118					
Cc1cccc(Nc2cc(-c3ccccc3)ncn2)c1 [Compound 13]	Inactive					272					
Oc1ccc(Nc2cc(Nc3ccc(O)cc3)ncn2)cc1 [Compound 12]	EGFR; calss III RTK; AXL; TRKA; JAK3	> 50	<0.12	> 50	<0.10						
Cc1ccc(Nc2cc(Nc3ccccc3)ncn2)cc1 [Compound 4]	EGFR selective	14.2 ± 2.75	0.44	23.2 ± 4.29	0.22	265					
Nc1ccc(Nc2cc(Nc3ccccc3)ncn2)cc1 [Compound 6]		34 ± 4.98	0.18	16.1 ± 4.85	0.31						
Cc1cccc(Nc2cc(Nc3cccc(C)c3)ncn2)c1 [Compound 8]		> 50	<0.12	> 50	<0.10						
Brc1cccc(Nc2cc(Nc3cccc(Br)c3)ncn2)c1 [Compound 9]		> 50	<0.12	> 50	<0.10	243					
Nc1ccc(Nc2ncncc2-c2ccccc2)cc1 [Compound 25]		26.1 ± 4.55	0.24	27.9 ± 5.28	0.18						
CCN(CC)CCNC(=O)c1c(C)[nH]c(/C=C2\C(=O)Nc3ccc(F)cc32)c1C [SU, sunitinib, reference compound]		6.22 ± 1.84		5.05 ± 1.34			12.2 ± 2.83	3.52 ± 1.22	2.58 ± 0.85	8.18 ± 2.67	8.25 ± 2.88
Cc1cccc(Nc2cc(Nc3ccccc3)ncn2)c1 [Compound 1]	EGFR selective	8.94 ± 2.18	0.70	6.43 ± 1.78	0.79	254					
